# Patent US12220437B2, “Oncolytic virus improved in safety and anticancer effect” (BIONOXX INC., priority 2017, dated 2025)
# What was measured:
# [1] = system: A549 cells; test: Annexin V/PI staining, flow cytometry (FACS); assay type: cell-based, human
# Method: (§1) In addition, the apoptosis and necrosis according to the combined administration of OTS-412 and GCV were confirmed by flow cytometry (FACS). Specifically, A549 and NCI-H460 cell lines were treated with GCV alone, OTS-412 alone, or a combination of OTS-412 and GCV, respectively, and the cells were subjected to Annexin V/PI staining followed by flow cytometry. At this time, the viability of cell was determined based on the facts that: both Annexin V and PI are negative in living cells; Annexin V is positive in the early stage of apoptosis, wherein the permeability of cell membrane changes; and both Annexin V and PI are positive at the end of apoptosis, wherein the nucleus is exposed by destruction of the cell membrane.
# [2] = system: NCI-H460 cells; test: Annexin V/PI staining, flow cytometry (FACS); assay type: cell-based, human
# Method: as §1
structure (smiles),measurement,setting,value
"Nc1nc2c(ncn2COC(CO)CO)c(=O)[nH]1 [GCV, ganciclovir]",apoptosis rate,[1],not confirmed
same,apoptosis rate,[2],not confirmed
